This is an account of results in PubChem BioAssay (NCI).

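Grown in 96-well plates, cells were treated for 48 hours with each compound at five concentrations. Insufficient inhibition: endpoint recorded as highest concentration tested. The concentration for full growth arrest is given as TGI.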

Test systems include MOLT-4 leukemia; SK-MEL-5 melanoma; MCF7 breast; SW-620 colon; NCI-H23 lung; 786-0 renal; HCC-2998 colon; EKVX NSCLC; OVCAR-8 ovarian; HS 578T breast.
Assay in all cases: NCI tumour cell line growth inhibition, 48 h

For the compound `CCC1OC2C(CC=C(C)C)=C3OC(C)(O)C(C)(CC)C(=O)C3=C3OC(=O)C=C1C32` (centres undefined), the TGI was over 100 µM in the assay on MOLT-4 leukemia; 34.9 µM with SK-MEL-5 melanoma; over 100 µM with MCF7 breast; over 100 µM in the assay on SW-620 colon; 70.7 µM with NCI-H23 lung; over 100 µM with 786-0 renal. Also, the TGI with HCC-2998 colon and with EKVX NSCLC was over 100 µM throughout.

`COc1ccc2nc3c([N+](=O)[O-])ccc(NCCCN(C)C)c3c(N)c2c1`: the TGI was 1.69 µM in the assay with MOLT-4 leukemia; 3.63 µM in the assay with SK-MEL-5 melanoma; 2.5 µM in the assay on MCF7 breast; 1.71 µM in the assay with SW-620 colon; 3.95 µM in the assay on NCI-H23 lung; 2.6 µM in the assay with 786-0 renal. The TGI in the assay on OVCAR-8 ovarian is 4.69 µM; in the assay with HS 578T breast it was 4.79 µM; in the assay with EKVX NSCLC, 3.68 µM.

On to `CN(C)CCCN=c1c2ccccc2n(C)c2[nH]c(=O)n(C)c(=O)c12`, for which the TGI is 12.1 µM with MOLT-4 leukemia; 18.4 µM in the assay with SK-MEL-5 melanoma; 26.6 µM in the assay on MCF7 breast; 28.1 µM in the assay with SW-620 colon; 21.7 µM with NCI-H23 lung; over 64.8 µM with 786-0 renal. Also, the TGI with OVCAR-8 ovarian is over 100 µM; in the assay with HS 578T breast, 52.6 µM; in the assay with EKVX NSCLC, 28.9 µM.

Take `O=P(Nc1cccc(Cl)c1)(Oc1ccccc1)N(CCCl)CCCl` (centres undefined): the TGI with MOLT-4 leukemia was over 100 µM; in the assay on SK-MEL-5 melanoma, 25.3 µM; in the assay on SW-620 colon it was 30.7 µM; in the assay with NCI-H23 lung it was 31.8 µM; with OVCAR-8 ovarian, 37.9 µM; with HCC-2998 colon, 28.6 µM. This compound returned a TGI in the assay with EKVX NSCLC of 33.9 µM.

Consider `CCOC(=O)CCC(C(=O)OCC)n1nnc2ccc(Nc3c(C)[n+]([O-])c4cc(F)c(OCC)cc4[n+]3[O-])cc21` (centres undefined), for which the TGI with MOLT-4 leukemia was over 100 µM; in the assay on SK-MEL-5 melanoma, over 100 µM; in the assay with MCF7 breast it was 68.6 µM; in the assay on SW-620 colon it was over 100 µM; with NCI-H23 lung, over 100 µM; with 786-0 renal it was over 100 µM. Moreover, the TGI in the assay on OVCAR-8 ovarian, in the assay with HS 578T breast and with EKVX NSCLC was over 100 µM each time.

With `Brc1ccc(C[N+]23CN4CN(CN(C4)C2)C3)cc1`, the TGI with MOLT-4 leukemia was 69 µM; in the assay on SW-620 colon, 82.3 µM; with NCI-H23 lung, over 100 µM; in the assay on 786-0 renal it was over 100 µM; in the assay with OVCAR-8 ovarian, 99.7 µM; in the assay on HCC-2998 colon it was over 100 µM. Besides, the TGI with EKVX NSCLC was over 100 µM.

Turning to `O=C(CSc1nnc(-c2ccc(N=Cc3ccc(Cl)cc3)cc2)o1)Nc1cccc([N+](=O)[O-])c1`, the TGI in the assay with MOLT-4 leukemia, in the assay on SK-MEL-5 melanoma, with SW-620 colon, in the assay with NCI-H23 lung, in the assay on 786-0 renal and in the assay on OVCAR-8 ovarian was over 100 µM in each case. The same compound had a TGI in the assay with EKVX NSCLC of over 100 µM.

Turning to `CON(C(=O)OC(C)(C)C)c1ccccc1`, the TGI with MOLT-4 leukemia, with SK-MEL-5 melanoma, with SW-620 colon, with NCI-H23 lung, in the assay on 786-0 renal and in the assay on OVCAR-8 ovarian was over 100 µM in each case. Also, the TGI with HS 578T breast, in the assay with HCC-2998 colon and with EKVX NSCLC was over 100 µM throughout.

Turning to `COc1ccc(/C=C(\C2=NC(=O)CS2)c2nc3ccccc3[nH]2)cc1`, the TGI in the assay with MOLT-4 leukemia was over 100 µM; in the assay on SK-MEL-5 melanoma, over 100 µM; in the assay with SW-620 colon, over 100 µM; in the assay on NCI-H23 lung it was over 100 µM; in the assay with OVCAR-8 ovarian, over 100 µM; in the assay on HCC-2998 colon, 49.7 µM. The TGI with EKVX NSCLC is over 100 µM.

Consider `COc1cc2nc3n(c(=O)c2cc1OC)CCCCC3`, for which the TGI in the assay with MOLT-4 leukemia, with SK-MEL-5 melanoma, in the assay on MCF7 breast, in the assay with SW-620 colon, in the assay on NCI-H23 lung and with 786-0 renal was over 100 µM each time. The TGI with OVCAR-8 ovarian, with HS 578T breast and with EKVX NSCLC was over 100 µM in each case.

With `COC(=O)[C@@H](NC(=O)c1ccc(CNC(=O)/C(C)=C/c2ccccc2)cc1)C(C)C`, the TGI with MOLT-4 leukemia, with SK-MEL-5 melanoma, with MCF7 breast, in the assay on SW-620 colon, with NCI-H23 lung and in the assay with 786-0 renal was over 100 µM in each case. Also, the TGI in the assay with OVCAR-8 ovarian is over 100 µM; in the assay with HCC-2998 colon, 79.9 µM; in the assay with EKVX NSCLC it was over 100 µM.

For the compound `O=C(c1cccnc1)N1N=C(c2ccc3c(c2)OCO3)CC1(O)c1cc(F)c(Cl)cc1Cl` (centres undefined), the TGI in the assay on MOLT-4 leukemia is over 100 µM; with SK-MEL-5 melanoma, 28.8 µM; in the assay on SW-620 colon, 84.5 µM; with NCI-H23 lung, over 100 µM; in the assay on 786-0 renal, 35.2 µM; in the assay with OVCAR-8 ovarian it was 38.4 µM. Besides, the TGI is over 100 µM in the assay with HS 578T breast and 64.5 µM in the assay on EKVX NSCLC.

Consider `COc1ccc(N2C(=O)C3C=CC(n4[nH]c(=O)n(Cc5ccccc5)c4=O)CC3C2=O)cc1` (centres undefined), for which the TGI in the assay with MOLT-4 leukemia, in the assay on SK-MEL-5 melanoma, in the assay on SW-620 colon, in the assay on NCI-H23 lung, in the assay on 786-0 renal and in the assay with OVCAR-8 ovarian was over 100 µM each time. Moreover, the TGI in the assay on HCC-2998 colon and in the assay on EKVX NSCLC was over 100 µM throughout.

For the compound `CCSc1[nH]c(NC(=NC(C)C)NC(=O)c2ccccc2)c(C(N)=O)c1C(N)=O`, the TGI in the assay with MOLT-4 leukemia, with SK-MEL-5 melanoma, in the assay on MCF7 breast, in the assay with SW-620 colon, in the assay on NCI-H23 lung and in the assay with 786-0 renal was over 10 µM throughout. Also, the TGI in the assay with OVCAR-8 ovarian, in the assay on HCC-2998 colon and in the assay with EKVX NSCLC was over 10 µM in each case.

Regarding `O=C1C(=O)N(C23CC4CC(CC(C4)C2)C3)C(=S)N1c1ccccc1`, the TGI with MOLT-4 leukemia, in the assay on SK-MEL-5 melanoma, in the assay on SW-620 colon, in the assay on NCI-H23 lung, in the assay on 786-0 renal and in the assay on OVCAR-8 ovarian was over 100 µM each time. Further, the TGI in the assay on HS 578T breast, in the assay with HCC-2998 colon and with EKVX NSCLC was over 100 µM each time.
